# In PubChem BioAssay AID248 (DTP/NCI, 2004):
# Where “and” joins values, the source holds several entries; their conditions need not be identical. Equal entries are not always repeated. Toxic doses and inconclusive results are not listed.
# Tested on: L1210 leukemia ip in BDF1 mice, survival T/C
# Assay: NCI In Vivo Anticancer Drug Screen. Data for tumor model L1210 Leukemia (intraperitoneal) in B6D2F1 (BDF1) mice
# Details: endpoint: mean survival time, higher = longer survival
# In short: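 Transplanted-tumor mice were given test agent; controls received vehicle only. Survival readings from the two groups were divided (treated over control).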
# [1] = dose: 100.0 mg/kg/injection, schedule: Q01DX009 (ip), vehicle: saline with Tween-80
# [2] = dose: 100.0 mg/kg/injection, schedule: Q04DX002 (ip), vehicle: saline
# [3] = dose: 200.0 mg/kg/injection, schedule: Q01DX009 (ip), vehicle: saline with Tween-80
# [4] = dose: 200.0 mg/kg/injection, schedule: Q04DX002 (ip), vehicle: saline
# [5] = dose: 400.0 mg/kg/injection, schedule: Q01DX009 (ip), vehicle: saline with Tween-80
# [6] = dose: 400.0 mg/kg/injection, schedule: Q04DX002 (ip), vehicle: saline
# [7] = dose: 100.0 mg/kg/injection, schedule: Q04DX002 (ip), vehicle: saline with Tween-80
# [8] = dose: 200.0 mg/kg/injection, schedule: Q04DX002 (ip), vehicle: saline with Tween-80
# [9] = dose: 400.0 mg/kg/injection, schedule: Q04DX002 (ip), vehicle: saline with Tween-80
# [10] = dose: 100.0 mg/kg/injection, schedule: Q01DX001 (ip), vehicle: saline with Tween-80
# [11] = dose: 100.0 mg/kg/injection, schedule: Q01DX001 (ip), vehicle: saline
# [12] = dose: 200.0 mg/kg/injection, schedule: Q01DX001 (ip), vehicle: saline
# [13] = dose: 400.0 mg/kg/injection, schedule: Q01DX001 (ip), vehicle: saline
# [14] = dose: 50.0 mg/kg/injection, schedule: Q01DX001 (ip), vehicle: saline
# [15] = dose: 100.0 mg/kg/injection, schedule: Q04DX003 (ip), vehicle: saline
# [16] = dose: 100.0 mg/kg/injection, schedule: Q01DX001 (ip), vehicle: carboxymethylcellulose (CMC)
# [17] = dose: 75.0 mg/kg/injection, schedule: Q01DX001 (ip), vehicle: saline
# [18] = dose: 100.0 mg/kg/injection, schedule: Q01DX009 (ip), vehicle: Klucel (hydroxypropylcellulose) (HPC)
# [19] = dose: 200.0 mg/kg/injection, schedule: Q01DX009 (ip), vehicle: Klucel (hydroxypropylcellulose) (HPC)
smiles,measurement,setting,value
CNC(=O)Nc1ccc(C(=O)NCC(=O)O)cc1,T/C,[1],100 % of control and 105 % of control
same,T/C,[2],100 % of control and 92 % of control
same,T/C,"dose: 100.0 mg/kg/injection, schedule: Q04DX003 (ip), vehicle: saline with Tween-80",98 % of control
same,T/C,[3],93 % of control and 100 % of control
same,T/C,[4],100 % of control and 91 % of control
same,T/C,"dose: 200.0 mg/kg/injection, schedule: Q04DX003 (ip), vehicle: saline with Tween-80",91 % of control
same,T/C,[5],105 % of control and 110 % of control
same,T/C,[6],95 % of control and 96 % of control
same,T/C,"dose: 400.0 mg/kg/injection, schedule: Q04DX003 (ip), vehicle: saline with Tween-80",98 % of control
COc1ccc2c(c1)C(C)(C)N(C)CC2,T/C,"dose: 100.0 mg/kg/injection, schedule: Q04DX003 (ip), vehicle: acetone",104 % of control
C1CCC(C2CCC(C3CCCC3)C2)C1 (stereo unspecified),T/C,[7],91 % of control
same,T/C,[8],94 % of control
same,T/C,[9],91 % of control
Cc1nc(N)[nH]c(=O)c1CCCNCc1ccccn1,T/C,"dose: 25.0 mg/kg/injection, schedule: Q01DX001 (ip), vehicle: saline with Tween-80",101 % of control
same,T/C,"dose: 50.0 mg/kg/injection, schedule: Q01DX001 (ip), vehicle: saline with Tween-80",98 % of control
same,T/C,[10],93 % of control
COc1ccccc1CN1CCCN(Cc2ccccc2OC)C1c1ccc(N(CCCl)CCCl)cc1C,T/C,[11],88 % of control
same,T/C,"dose: 100.0 mg/kg/injection, schedule: Q01DX009 (ip), vehicle: saline",98 % of control
same,T/C,[12],88 % of control
same,T/C,"dose: 200.0 mg/kg/injection, schedule: Q01DX009 (ip), vehicle: saline",95 % of control
same,T/C,[13],87 % of control
Nc1ccc2scnc2c1,T/C,[1],98 % of control
same,T/C,[3],98 % of control
same,T/C,[5],92 % of control
COc1cc(CC(=O)N(C)C)c([N+](=O)[O-])cc1OC,T/C,[11],87 % of control
same,T/C,[12],93 % of control
same,T/C,[13],93 % of control
CCCCNC(C)(C)C(SC(C)=O)c1ccc(Cl)cc1 (stereo unspecified),T/C,[1],89 % of control
CCOP(=O)(OCC)Oc1c(Cl)c(Cl)c(O)c(Cl)c1Cl,T/C,[7],91 % of control
same,T/C,[8],100 % of control
O=C(OCS(=O)c1ccccc1)c1ccccc1 (stereo unspecified),T/C,"dose: 100.0 mg/kg/injection, schedule: Q04DX003 (ip), vehicle: Klucel (hydroxypropylcellulose) (HPC)",94 % of control
same,T/C,"dose: 200.0 mg/kg/injection, schedule: Q04DX003 (ip), vehicle: Klucel (hydroxypropylcellulose) (HPC)",104 % of control
NC12C3(Cl)C4(Cl)C5(OCCO5)C5(Cl)C3(Cl)C1(Cl)C5(Cl)C24Cl (stereo unspecified),T/C,[14],102 % of control
same,T/C,[11],102 % of control
same,T/C,[12],90 % of control
same,T/C,[13],102 % of control
NC(CCc1cc(O)ccc1O)C(=O)O (stereo unspecified),T/C,[15],105 % of control
same,T/C,"dose: 200.0 mg/kg/injection, schedule: Q04DX003 (ip), vehicle: saline",107 % of control
same,T/C,"dose: 400.0 mg/kg/injection, schedule: Q04DX003 (ip), vehicle: saline",98 % of control
COc1cc(C(=O)Nc2ccc(C3=NCCN3)cc2)ccc1C(=O)Nc1ccc(C2=NCCN2)cc1,T/C,"dose: 15.0 mg/kg/injection, schedule: Q01DX Z (ip), vehicle: saline",159 % of control and 172 % of control
same,T/C,"dose: 30.0 mg/kg/injection, schedule: Q01DX Z (ip), vehicle: saline",212 % of control
same,T/C,"dose: 60.0 mg/kg/injection, schedule: Q01DX010 (oral), vehicle: saline",101 % of control
same,T/C,"dose: 60.0 mg/kg/injection, schedule: Q01DX Z (ip), vehicle: saline",188 % of control
same,T/C,"dose: 120.0 mg/kg/injection, schedule: Q01DX010 (oral), vehicle: saline",104 % of control
same,T/C,"dose: 240.0 mg/kg/injection, schedule: Q01DX010 (oral), vehicle: saline",98 % of control
NC(N)=NNCCOc1c(Cl)cccc1Cl,T/C,"dose: 25.0 mg/kg/injection, schedule: Q01DX001 (ip), vehicle: carboxymethylcellulose (CMC)",116 % of control
same,T/C,"dose: 50.0 mg/kg/injection, schedule: Q01DX001 (ip), vehicle: carboxymethylcellulose (CMC)",101 % of control
same,T/C,[16],111 % of control
CNc1ccccc1C(=O)N/N=C/c1c(O)ccc2ccccc12,T/C,[2],99 % of control
same,T/C,[4],96 % of control
same,T/C,[6],96 % of control
C#CCSC(=N)N,T/C,"dose: 25.0 mg/kg/injection, schedule: Q01DX009 (ip), vehicle: saline",101 % of control
same,T/C,"dose: 50.0 mg/kg/injection, schedule: Q01DX009 (ip), vehicle: saline",93 % of control
same,T/C,[15],103 % of control
CC(=O)OCC(C(=O)O)(c1ccccc1)c1ccccc1,T/C,"dose: 55.0 mg/kg/injection, schedule: Q01DX Z (ip), vehicle: methylcellulose (MC)",94 % of control
same,T/C,"dose: 83.0 mg/kg/injection, schedule: Q01DX Z (ip), vehicle: methylcellulose (MC)",98 % of control
same,T/C,"dose: 125.0 mg/kg/injection, schedule: Q01DX Z (ip), vehicle: methylcellulose (MC)",93 % of control
COC(=O)NC(CI)c1ccccc1 (stereo unspecified),T/C,[17],110 % of control
same,T/C,"dose: 150.0 mg/kg/injection, schedule: Q01DX001 (ip), vehicle: saline",110 % of control
same,T/C,"dose: 300.0 mg/kg/injection, schedule: Q01DX001 (ip), vehicle: saline",100 % of control
CS/C(N)=N/N,T/C,"dose: 12.5 mg/kg/injection, schedule: Q04DX003 (ip), vehicle: saline",100 % of control
same,T/C,"dose: 25.0 mg/kg/injection, schedule: Q01DX001 (ip), vehicle: saline",90 % of control
same,T/C,"dose: 25.0 mg/kg/injection, schedule: Q04DX003 (ip), vehicle: saline",106 % of control
same,T/C,[14],101 % of control
O=C(N/N=C/c1ccc(Cl)cc1)C(O)c1ccccc1 (stereo unspecified),T/C,[18],87 % of control
same,T/C,[19],87 % of control
same,T/C,"dose: 400.0 mg/kg/injection, schedule: Q01DX009 (ip), vehicle: Klucel (hydroxypropylcellulose) (HPC)",89 % of control
N#CCCCN=[N+]=[N-],T/C,"dose: 37.5 mg/kg/injection, schedule: Q04DX003 (ip), vehicle: saline",104 % of control
CN1C(=O)N(C)P1(Cl)(Cl)Cl,T/C,[7],103 % of control
same,T/C,[8],95 % of control
same,T/C,[9],92 % of control
O=C(O)CCSc1nc[nH]c1[N+](=O)[O-],T/C,[10],102 % of control
same,T/C,"dose: 200.0 mg/kg/injection, schedule: Q01DX001 (ip), vehicle: saline with Tween-80",96 % of control
same,T/C,"dose: 400.0 mg/kg/injection, schedule: Q01DX001 (ip), vehicle: saline with Tween-80",96 % of control
Brc1cscc1-c1c2ccccc2cc2ccccc12,T/C,"dose: 50.0 mg/kg/injection, schedule: Q01DX009 (ip), vehicle: saline with Tween-80",106 % of control
same,T/C,[1],98 % of control
same,T/C,[3],98 % of control
O=C(O)c1ccc(/C=N/NC(=O)c2cccc3ccccc23)cc1,T/C,[11],87 % of control
same,T/C,[12],87 % of control
O=C(CBr)c1ccc2c3c(cccc13)C=C2,T/C,[17],98 % of control
O=c1[nH]c2ccccc2c2cc3ccccc3cc12,T/C,"dose: 88.8 mg/kg/injection, schedule: Q01DX001 (ip), vehicle: carboxymethylcellulose (CMC)",93 % of control and 102 % of control
same,T/C,[16],93 % of control
same,T/C,"dose: 133.4 mg/kg/injection, schedule: Q01DX001 (ip), vehicle: carboxymethylcellulose (CMC)",95 % of control and 102 % of control
same,T/C,"dose: 300.0 mg/kg/injection, schedule: Q01DX001 (ip), vehicle: carboxymethylcellulose (CMC)",100 % of control and 88 % of control
same,T/C,"dose: 400.0 mg/kg/injection, schedule: Q01DX001 (ip), vehicle: carboxymethylcellulose (CMC)",93 % of control
COc1ccc(C(=O)OCc2ccccc2CN(C)C)cc1,T/C,[2],105 % of control
same,T/C,[4],105 % of control
Cc1c([N+](=O)[O-])sc2ccccc12,T/C,[11],97 % of control
same,T/C,[12],97 % of control
same,T/C,[13],90 % of control
Cc1ccc(S(=O)(=O)C[n+]2ccccc2)cc1,T/C,[7],98 % of control
same,T/C,[8],94 % of control
O=C(O)c1c(Br)c(Br)c(Br)c(Br)c1C(=O)Nc1ccccc1F,T/C,[18],93 % of control
same,T/C,[19],96 % of control
CN(C)CC(O)c1ccc2oc3ccccc3c2c1 (stereo unspecified),T/C,[11],90 % of control
same,T/C,[12],97 % of control
